# According to patent US6835563B1, “Compositions and methods for increasing cholesterol efflux and raising HDL ATP binding cassette transporter protein ABC1” (CV Therapeutics, priority 1999, dated 2004):
# Tests used:
# normal skin fibroblasts = test: Apo A-I-mediated cholesterol efflux after antisense inhibition of ABC1 mRNA; assay type: cell-based, human; settings: 30 μM oligonucleotide, apo A-I-mediated efflux after 12 hours
# Description: Normal skin fibroblasts were labeled with [^3H]cholesterol as described in Example 1.
# The cells were then loaded with oligonucleotide by scraping in the presence of either 30 μM control. Morpholino oligonucleotide (5′-[…]-3′ corresponding to the antisense complement of a β-globin thalassemic mRNA; SEQ ID NO: 52) or […] ABC1 antisense. Morpholino oligonucleotide (5′-[…]-3′; SEQ ID NO: 53) and reseeding on new dishes. Control cells were mock-loaded after [^3H]cholesterol-labeling by scraping and reseeding in the absence of oligonucleotide. […] The results are shown in FIG. 6 as the mean±SEM of three separate experiments, normalized to the value for apo A-I-specific efflux in the absence of oligonucleotide in each experiment.
# RAW 264.7 cells = test: Apo A-I-mediated cholesterol efflux from cholesterol-loaded RAW 264.7 macrophage cells; settings: for increase in apoAI-induced cholesterol efflux: 9 cis-retinoic acid 30 ng/ml, 22(R)hydroxycholesterol 5 μg/ml, fenfibrate 3 μg/ml, PGI2 25 nm, PGE1 25 nM
# Description: Assay to Measure Lipid Efflux: Apo AI-mediated efflux of cholesterol and, phospholipid was assayed according to the method described in. […] RAW 264.7 cells were cholesterol-loaded through the scavenger receptor by 24-hour incubation with acetylated LDL as described in Smith et al., J. Biol. Chem., 271:30647-30655 (1996). Briefly, RAW 264.7 cells in 24-well dishes were cholesterol-loaded and labeled overnight in 0.5 ml of DMEM supplemented with 50 μl/ml 1M glucose, 10 μl/ml 200 mM glutamine and 2% BSA and with 50 μg/ml acetylated low density lipoprotein (AcLDL) and [^3H]-cholesterol which had been pre-incubated for 30 minutes at 37° C. with AcLDL to yield a final concentration of 0.33 μCi/ml [^3H]-cholesterol. Cells were subsequently washed five times with PBS containing 1% BSA and incubated overnight (16-18 hours) in DMEM/BSA to allow for equilibrium of cholesterol pools. After equilibrium of cholesterol pools, cells were rinsed four times with PBS/BSA and incubated for one hour at 37° C. with DMEM/BSA before the efflux incubations. Efflux medium (DMEM/BSA) containing either albumin alone (control), albumin plus HDL (40 μg protein/ml), or albumin plus apo A-I (10 μg/ml, Biodesign International, Kennebunk, Me.) was added and the cells were incubated for 4, 24, or 48 hours. […] The radioactivity found in the culture medium was measured by scintillation counting after a 15-minute centrifugation at 12,000 g. The radioactivity in the cells was measured by scintillation counting after solubilization in 0.5 ml of 0.2M NaOH (Smith et al., J. Biol. Chem., 271:30647-30655 (1996)) or extraction in hexane:isopropanol (3:2 v/v) as described in Francis, et al., J. Clin. Invest., 96, 78-87 (1995). […] The efflux of cholesterol or phospholipid was expressed as the percentage of tritiated lipid counts in the medium over the total tritiated lipid counts recovered from the cells and medium (cpm medium/cpm (medium+lysate)×100).
# Briefly, RAW 264.7 cells suspended at a density of 1.25×10^5 cells/ml were grown in DMEM/10% FBS supplemented with pyruvate. After 24 hours, the medium was removed and replaced with DMEM/BSA plus radiolabeled cholesterol (1 μCi/ml ^3[H]-cholesterol) and 50 μg/ml of acetylated LDL for 24 hours. The cells were then maintained for 24 hours in equilibrium medium consisting of DMEM/BSA plus either apo A-I alone (20 μg/ml), apo A-I and 8-bromo 3′, 5′ cAMP (1 mM) or apo A-I and rolipram (50 μM).
# ABC1 5' flanking region = test: Luciferase reporter constructs with portions of the ABC1 5' flanking region in RAW 264.7 cells; assay type: cell-based, mouse; settings: wild-type sequence nt 1080-1643 of SEQ ID NO: 3
# Description: (§1) Luciferase Assay: Following transfection, the cells in each well were lysed in 70 μl of 1× cell lysis reagent (Promega, Madison, Wis., Cat. #E3971), subjected to one freeze-thaw cycle, and the lysate cleared by centrifugation for 5 minutes at 12,000 g. After centrifugation, 100 μl of luciferase assay reagent (Promega, Madison, Wis.; Cat. #E1501) was added to 10 μl of lysate. The luciferase activity of each lysate was measured as light units using a luminometer. Additionally, the β-galactosidase activity of each lysate was measured using the chemiluminescent assay reagents supplied in the Galacto-light kit according to the manufacturer's instructions (Tropix Inc., Bedford, Mass.: Cat. #BL100G). The normalized luciferase activity for each lysate was determined by dividing the luciferase activity value by the determined 0-galactosidase value and reported as relative light units.
# Construction of Reporter Constructs: Reporter construct pAPR1 and control reporter construct pGL3-Basic were obtained as described in Example 15. […]
# Transfection of Reporter Constructs: The RAW 264.7 cells were maintained in culture and transfected with either pGL3-Basic (1 μg), pAPR1 (1 μg), or one of the other reporter constructs according to the method described in Example 15. […] The luciferase activity was measured and reported as relative light units as described in Example 15.
# [1] = system: ABC1 5' flanking region with mutated sterol response element; test: Luciferase reporter construct 1080-1643 with mutated sterol response element in RAW 264.7 cells; assay type: cell-based, mouse; settings: mutated sequence nt 1080-1643, sterol response element mutated
# Description: as §1
# Transfection of Reporter Constructs: The RAW 264.7 cells were maintained in culture and transfected with either pGL3-Basic (1 μg), pAPR1 (1 μg), or one of the other reporter constructs according to the method described in Example 15. […] The luciferase activity was measured and reported as relative light units as described in Example 15. […]
# ABC1 mRNA = ABC1 mRNA by RT-PCR in RAW 264.7 cells; assay type: cell-based, mouse; settings: single ligand 10 μM, 24 hours, serum-free DMEM/BSA
# Description: RT-PCR: Quantitative PCR was carried out using the GeneAmp 5700 Sequence. Detection System (Perkin-Elmer Applied Biosystems, Foster City, Calif.). Briefly, 500 ng of DNase-treated mRNA was reverse transcribed using random hexamer primers at 2.5 μM. Approximately 5% of this reaction was amplified by PCR using the SYBR green core kit (PE. Applied Biosystems, Foster City, Calif.; Cat. #4304886) and human ABC1 primers LF: 5′-[…] (SEQ ID NO: 11) and LR: 5′-[…] (SEQ ID NO: 12) to yield an 82 bp fragment corresponding to nucleotides 7018-7099 of human ABC1. PCR cycle conditions were as follows: 10 minutes 95° C.; followed by 40 cycles of 95° C., 15 seconds; and 60° C., 60 seconds. The mRNA in each sample was quantitated by detecting the increase in fluorescence caused by SYBR green binding to the double-stranded amplification product generated during each PCR cycle. All samples were run in triplicate and normalized against 0-actin mRNA, amplified in parallel reactions with primers actinF: 5′-[…] (SEQ ID NO: 54) and actinB: 5′-[…] […]
# Mouse RAW 264.7 cells were grown to subconfluence in DMEM/10% FBS and then treated for 24 hours in serum-free DMEM/BSA with either 9-cis retinoic acid (10 μM), 20-hydroxycholesterol (10 μM), or both ligands together (20 μM total). […] RNA was extracted, treated with DNase, and ABC1 mRNA measured by RT-PCR using PE Biosystems SYBR Green Technology as described in Example 9.
# ABC1 = settings: dose-dependent; Becq et al. 1997, Hamon et al. 1997; cited from earlier work
# normal fibroblasts = test: Apo A-I-mediated lipid efflux from normal fibroblasts with ABC1 transport inhibitors; assay type: cell-based, human; settings: 0.2 or 0.4 mM, 6 hours, 5 μg/ml apo A-I
# Description: To test whether inhibition of ABC1 could affect the process of apolipoprotein-mediated cholesterol efflux, two compounds reported to be ABC1 inhibitors were tested in assays which monitor apolipoprotein mediated cholesterol efflux. […] The apolipoprotein-mediated cholesterol efflux assays were performed as described in Example 1 with the noted changes.
# Cholesterol-loaded and [^3H]cholesterol-labeled normal fibroblasts (n=3) were incubated for 6 hours with or without 5 μg/ml apo A-I and either 0, 0.2 mM, or 0.4 mM DIDS. In addition, cholesterol-loaded and [^3H]cholesterol-labeled normal fibroblasts (n=3) were incubated for 6 hours with or without 5 μg/ml apo A-I and either 0, 0.2 mM, or 0.4 mM BSP. […] The results are shown in FIG. 5 as the mean±SD (n=3) of efflux in the presence of apo A-I after subtraction of values for apo A-I-free medium. […] The results of these tests mimic the efflux defect in fibroblasts derived from patients with TD, described in Example 1.
# ABC1 promoter = test: pAPR1 luciferase reporter under control of the ABC1 promoter in RAW 264.7 cells; assay type: cell-based, mouse; settings: pAPR1-transfected RAW 264.7; 10 μM each ligand (20 μM total for both), 24 hours
# Source text: Construction of Reporter Plasmids: Plasmid pGL3-Basic (Promega, Madison, Wis.; Cat. #E1751) was used as a control plasmid containing the promoterless luciferase gene. The reporter construct containing the ABC1 promoter and luciferase gene was made by cloning a genomic fragment from the 5′ flanking region of the ABC1 gene (hAPRI 5′ promoter, corresponding to nucleotides 1080-1643 of SEQ ID NO: 3) into the Sacd site of the GL3-Basic plasmid to generate plasmid GL-6a. Next, plasmid GL-6a was digested with SneI and Acc651. […]
# as §1, with “After centrifugation, 100 μl of luciferase assay reagent (Promega, Madison, Wis.; Cat. #E1501) was added to 10 μl of lysate.” left out, “units. […]” for “units.”
compound,measurement,setting,value
"ABC1 antisense. Morpholino oligonucleotide: Morpholino 5′-CATGTTGTTCATAGGGTGGGTAGCTC-3′; SEQ ID NO: 53, directed against ABC1 mRNA (all phosphorodiamidate morpholino (PMO))",reduction in cholesterol efflux compared with control anti-sense oligonucleotide,normal skin fibroblasts,50%
CC(C)OC(=O)C(C)(C)Oc1ccc(C(=O)c2ccc(Cl)cc2)cc1 [fenfibrate],increase in apoAI-induced cholesterol efflux,RAW 264.7 cells,~2 fold
CC(C)CCC[C@](C)(O)[C@H]1CC[C@H]2[C@@H]3CC=C4C[C@@H](O)CC[C@]4(C)[C@H]3CC[C@@]21C [20(S)-hydroxycholesterol],transcriptional response (luciferase activity),ABC1 5' flanking region,produced a transcriptional response
same,transcriptional response (luciferase activity),[1],did not produce a transcriptional response
same,ABC1 mRNA expression,ABC1 mRNA,increase in ABC1 mRNA expression
"O=C1OC(c2ccc(O)c(S(=O)(=O)O)c2)(c2ccc(O)c(S(=O)(=O)O)c2)c2c(Br)c(Br)c(Br)c(Br)c21 [BSP, sulphobromophthaleine]",anion transport activities of ABC1,ABC1,inhibit
same,effect on apo A-I-mediated efflux of tritiated cholesterol,normal fibroblasts,inhibit
"CCCCC[C@H](O)/C=C/[C@H]1[C@H](O)CC(=O)[C@@H]1CCCCCCC(=O)O [PGE1, prostaglandin E1]",increase in apoAI-induced cholesterol efflux,RAW 264.7 cells,~3 fold
CC1=C(/C=C/C(C)=C\C=C\C(C)=C\C(=O)O)C(C)(C)CCC1 [9-cis retinoic acid],transcriptional response (luciferase activity),ABC1 5' flanking region,produced a transcriptional response
same,ABC1 mRNA expression,ABC1 mRNA,increase in ABC1 mRNA expression
same,cholesterol efflux,RAW 264.7 cells; 0.3 ng/ml 9-cis-RA with apo A-I,1522 c.p.m.
same,cholesterol efflux,RAW 264.7 cells; 3.0 ng/ml 9-cis-RA with apo A-I,3568 c.p.m.
same,cholesterol efflux,RAW 264.7 cells; 30 ng/ml 9-cis-RA with apo A-I,8597 c.p.m.
same,increase in apoAI-induced cholesterol efflux,RAW 264.7 cells,~3 fold
same,increase in luciferase reporter activity compared with EtOH control,ABC1 promoter,16 fold
CC(C)CC[C@@H](O)[C@@H](C)[C@H]1CC[C@H]2[C@@H]3CC=C4C[C@@H](O)CC[C@]4(C)[C@H]3CC[C@]12C [22(R)-hydroxycholesterol],transcriptional response (luciferase activity),[1],did not produce a transcriptional response
"CCCCC[C@H](O)/C=C/[C@@H]1[C@H]2C/C(=C/CCCC(=O)O)O[C@H]2C[C@H]1O [PGI2, prostacyclin PGI2]",increase in apoAI-induced cholesterol efflux,RAW 264.7 cells,~2 fold
